According to the NIST ThermoML archive (doi:10.1016/j.jct.2008.12.004):

Assay: excess molar enthalpy (molar enthalpy of mixing); xn = mol fraction of the nth substance listed
Details: 101 kPa, Liquid, Flow calorimetry

COC(C)(C)C [2-methoxy-2-methylpropane] + CCCO
298.15 K
Details	excess molar enthalpy [kJ/mol]
x1 = 0.0491	0.0621
x1 = 0.0997	0.131
x1 = 0.1503	0.201
x1 = 0.1976	0.264
x1 = 0.2472	0.327
x1 = 0.2965	0.383
x1 = 0.3477	0.437
x1 = 0.4008	0.486
x1 = 0.4468	0.52
x1 = 0.4982	0.548
x1 = 0.5486	0.568
x1 = 0.5974	0.576
x1 = 0.6485	0.571
x1 = 0.6977	0.556
x1 = 0.7491	0.525
x1 = 0.7985	0.475
x1 = 0.8494	0.403
x1 = 0.8986	0.308
x1 = 0.9498	0.173
x1 = 1	0

C1CCCCC1 [cyclohexane] + CCOC(C)(C)C
x2 = 0
Details	excess molar enthalpy [kJ/mol]
298.15 K	0
313.15 K	0

COC(C)(C)C [2-methoxy-2-methylpropane] + CCCCCC
298.15 K
Details	excess molar enthalpy [kJ/mol]
x1 = 0.0504	0.0718
x1 = 0.1002	0.133
x1 = 0.1497	0.188
x1 = 0.2008	0.237
x1 = 0.2491	0.275
x1 = 0.2994	0.309
x1 = 0.3486	0.337
x1 = 0.4002	0.358
x1 = 0.4484	0.369
x1 = 0.4997	0.374
x1 = 0.5493	0.37
x1 = 0.6006	0.359
x1 = 0.6496	0.341
x1 = 0.7001	0.313
x1 = 0.75	0.281
x1 = 0.7992	0.238
x1 = 0.8501	0.189
x1 = 0.9007	0.132
x1 = 0.9506	0.0706
x1 = 1	0

CCCCCC [hexane] + COC(C)(C)C
Details	excess molar enthalpy [kJ/mol]
298.15 K, x2 = 0	0

C1CCCCC1 [cyclohexane] + CCCCCC
298.15 K
Details	excess molar enthalpy [kJ/mol]
x1 = 0.074	0.0485
x1 = 0.1463	0.0909
x1 = 0.219	0.126
x1 = 0.2876	0.158
x1 = 0.3542	0.183
x1 = 0.4193	0.202
x1 = 0.4832	0.214
x1 = 0.5476	0.219
x1 = 0.6085	0.22
x1 = 0.6675	0.213
x1 = 0.7255	0.199
x1 = 0.7839	0.178
x1 = 0.8395	0.148
x1 = 0.8935	0.109
x1 = 0.9482	0.0585
x1 = 1	0

Cc1ccccc1 [toluene] + C1CCCCC1
x2 = 0
Details	excess molar enthalpy [kJ/mol]
298.15 K	0
313.15 K	0

CCOC(C)(C)C [2-ethoxy-2-methylpropane] + Cc1ccccc1
excess molar enthalpy [kJ/mol]
Details	298.15 K	313.15 K
x1 = 0.0248	-0.0039	–
x1 = 0.0491	-0.0073	–
x1 = 0.0499	–	-0.00332
x1 = 0.0739	-0.0109	–
x1 = 0.0997	–	-0.00541
x1 = 0.1003	-0.0149	–
x1 = 0.1498	-0.0212	–
x1 = 0.151	–	-0.00928
x1 = 0.1991	-0.0275	–
x1 = 0.2004	–	-0.0125
x1 = 0.2489	-0.0324	–
x1 = 0.2511	–	-0.0169
x1 = 0.2993	-0.0371	–
x1 = 0.2998	–	-0.02
x1 = 0.3499	–	-0.0216
x1 = 0.3513	-0.0405	–
x1 = 0.3987	-0.0433	–
x1 = 0.4011	–	-0.0247
x1 = 0.4495	-0.045	–
x1 = 0.45	–	-0.0254
x1 = 0.5003	–	-0.0272
x1 = 0.5019	-0.046	–
x1 = 0.5499	–	-0.0265
x1 = 0.5515	-0.0457	–
x1 = 0.599	-0.0452	–
x1 = 0.6007	–	-0.025
x1 = 0.6491	-0.0425	–
x1 = 0.6506	–	-0.0245
x1 = 0.6996	–	-0.0229
x1 = 0.7014	-0.0396	–
x1 = 0.7495	-0.0348	–
x1 = 0.7498	–	-0.0206
x1 = 0.801	-0.0293	–
x1 = 0.8013	–	-0.0172
x1 = 0.8492	–	-0.0143
x1 = 0.8514	-0.0222	–
x1 = 0.9006	-0.0151	–
x1 = 0.9008	–	-0.01
x1 = 0.951	-0.0072	–
x1 = 0.9511	–	-0.00601
x1 = 1	0	0

CCOC(C)(C)C [2-ethoxy-2-methylpropane] + CCCCCCC
excess molar enthalpy [kJ/mol]
Details	298.15 K	313.15 K
x1 = 0.0511	–	0.0422
x1 = 0.0512	0.0457	–
x1 = 0.1007	0.0886	–
x1 = 0.1504	0.123	–
x1 = 0.1507	–	0.121
x1 = 0.2003	0.162	–
x1 = 0.2008	–	0.155
x1 = 0.2509	0.188	–
x1 = 0.2511	–	0.189
x1 = 0.3016	0.214	–
x1 = 0.3019	–	0.212
x1 = 0.3505	0.238	–
x1 = 0.351	–	0.23
x1 = 0.4019	0.253	–
x1 = 0.4024	–	0.245
x1 = 0.4515	0.271	–
x1 = 0.4518	–	0.252
x1 = 0.5014	0.275	–
x1 = 0.5017	–	0.253
x1 = 0.5516	0.272	–
x1 = 0.5519	–	0.25
x1 = 0.6022	0.266	–
x1 = 0.6024	–	0.245
x1 = 0.6509	0.255	–
x1 = 0.6511	–	0.233
x1 = 0.7019	0.233	–
x1 = 0.7022	–	0.218
x1 = 0.7512	0.209	–
x1 = 0.7515	–	0.195
x1 = 0.8008	0.181	–
x1 = 0.801	–	0.167
x1 = 0.8507	0.146	–
x1 = 0.8509	–	0.134
x1 = 0.9009	0.102	–
x1 = 0.901	–	0.0943
x1 = 0.9492	0.0552	–
x1 = 0.9493	–	0.0509
x1 = 1	0	0

CCCCCC [hexane] + C1CCCCC1
Details	excess molar enthalpy [kJ/mol]
298.15 K, x2 = 0	0
